Test results reported in the NIST ThermoML archive (doi:10.1016/j.tca.2016.07.005).

Assay: xn = mol fraction of the nth substance listed
Settings: 101.3 kPa, Liquid; for viscosity: Concentric cylinders viscometry; for mass density: Vibrating tube method

O=S1(=O)CCCC1 [sulfolane] + OCC(O)CO
Settings | mass density [kg/m3] | viscosity [mPa·s]
313.15 K, x2 = 0 | 1251.7 | 8.1
313.15 K, x2 = 0.1002 | 1249.6 | 8.5
313.15 K, x2 = 0.2002 | 1248.8 | 10.5
313.15 K, x2 = 0.3002 | 1248.4 | 14.4
313.15 K, x2 = 0.4001 | 1247.8 | 19.2
313.15 K, x2 = 0.5001 | 1247.5 | 30.4
313.15 K, x2 = 0.5999 | 1247.5 | 46.2
313.15 K, x2 = 0.6999 | 1247.5 | 70.7
313.15 K, x2 = 0.7999 | 1248.5 | 101
313.15 K, x2 = 0.8993 | 1248.9 | 164
323.15 K, x2 = 0 | 1244 | 6.4
323.15 K, x2 = 0.1002 | 1240.9 | 7.2
323.15 K, x2 = 0.2002 | 1240.1 | 8.5
323.15 K, x2 = 0.3002 | 1239.7 | 11.2
323.15 K, x2 = 0.4001 | 1239.2 | 14.4
323.15 K, x2 = 0.5001 | 1239.1 | 22
323.15 K, x2 = 0.5999 | 1239.2 | 32.2
323.15 K, x2 = 0.6999 | 1239.7 | 45.9
323.15 K, x2 = 0.7999 | 1241.2 | 66.5
323.15 K, x2 = 0.8993 | 1241.9 | 103
333.15 K, x2 = 0 | 1235.4 | 5.2
333.15 K, x2 = 0.1002 | 1232.1 | 5.8
333.15 K, x2 = 0.2002 | 1231.3 | 6.6
333.15 K, x2 = 0.3002 | 1231 | 8.3
333.15 K, x2 = 0.4001 | 1230.7 | 10.4
333.15 K, x2 = 0.5001 | 1230.7 | 14.6
333.15 K, x2 = 0.5999 | 1231.1 | 20.3
333.15 K, x2 = 0.6999 | 1232 | 28.8
333.15 K, x2 = 0.7999 | 1233.7 | 41.8
333.15 K, x2 = 0.8993 | 1234.8 | 61.7
343.15 K, x2 = 0 | 1225 | 4.3
343.15 K, x2 = 0.1002 | 1223.2 | 4.7
343.15 K, x2 = 0.2002 | 1222.5 | 5.3
343.15 K, x2 = 0.3002 | 1222.3 | 6.3
343.15 K, x2 = 0.4001 | 1222.3 | 7.7
343.15 K, x2 = 0.5001 | 1222.7 | 10.2
343.15 K, x2 = 0.5999 | 1223.3 | 13.6
343.15 K, x2 = 0.6999 | 1224.1 | 18.5
343.15 K, x2 = 0.7999 | 1226.2 | 26.6
343.15 K, x2 = 0.8993 | 1227.5 | 38
353.15 K, x2 = 0 | 1215 | 3.7
353.15 K, x2 = 0.1002 | 1214.3 | 3.9
353.15 K, x2 = 0.2002 | 1213.7 | 4.3
353.15 K, x2 = 0.3002 | 1213.6 | 4.9
353.15 K, x2 = 0.4001 | 1213.8 | 6
353.15 K, x2 = 0.5001 | 1214.4 | 7.4
353.15 K, x2 = 0.5999 | 1215.3 | 9.8
353.15 K, x2 = 0.6999 | 1216.1 | 12.9
353.15 K, x2 = 0.7999 | 1218.5 | 18
353.15 K, x2 = 0.8993 | 1220.2 | 24.9
363.15 K, x2 = 0 | 1206 | 3.2
363.15 K, x2 = 0.1002 | 1205.3 | 3.3
363.15 K, x2 = 0.2002 | 1204.8 | 3.5
363.15 K, x2 = 0.3002 | 1204.8 | 4
363.15 K, x2 = 0.4001 | 1205.1 | 4.7
363.15 K, x2 = 0.5001 | 1205.9 | 5.8
363.15 K, x2 = 0.5999 | 1206.9 | 7.4
363.15 K, x2 = 0.6999 | 1208 | 9.4
363.15 K, x2 = 0.7999 | 1210.7 | 12.7
363.15 K, x2 = 0.8993 | 1212.7 | 17.1

O=S1(=O)CCCC1 [sulfolane] + CCCC[n+]1ccn(C)c1.O=S(=O)([N-]S(=O)(=O)C(F)(F)F)C(F)(F)F
Settings | mass density [kg/m3] | viscosity [mPa·s]
293.15 K, x2 = 0.1 | 1315.1 | 16.7
293.15 K, x2 = 0.1999 | 1345.9 | 19.8
293.15 K, x2 = 0.3001 | 1368.7 | 23.8
293.15 K, x2 = 0.4 | 1386.1 | 28.2
293.15 K, x2 = 0.5001 | 1400.1 | 32.9
293.15 K, x2 = 0.5999 | 1411.3 | 38
293.15 K, x2 = 0.7 | 1420.8 | 43.2
293.15 K, x2 = 0.7995 | 1428.6 | 49.6
293.15 K, x2 = 0.8985 | 1435.3 | 55.1
298.15 K, x2 = 0 | 1266.4 | 11.9
298.15 K, x2 = 0.1 | 1310.6 | 14.8
298.15 K, x2 = 0.1999 | 1341.3 | 17
298.15 K, x2 = 0.3001 | 1364.6 | 19.9
298.15 K, x2 = 0.4 | 1381.3 | 23.2
298.15 K, x2 = 0.5001 | 1395.3 | 26.7
298.15 K, x2 = 0.5999 | 1406.5 | 30.8
298.15 K, x2 = 0.7 | 1416 | 34.7
298.15 K, x2 = 0.7995 | 1423.8 | 39.8
298.15 K, x2 = 0.8985 | 1430.5 | 44.4
303.15 K, x2 = 0 | 1259.4 | 10.5
303.15 K, x2 = 0.1 | 1306.1 | 12.8
303.15 K, x2 = 0.1999 | 1336.7 | 14.3
303.15 K, x2 = 0.3001 | 1359.1 | 16.5
303.15 K, x2 = 0.4 | 1376.6 | 18.8
303.15 K, x2 = 0.5001 | 1390.5 | 21.5
303.15 K, x2 = 0.5999 | 1401.7 | 24.7
303.15 K, x2 = 0.7 | 1411.1 | 27.3
303.15 K, x2 = 0.7995 | 1419 | 31.1
303.15 K, x2 = 0.8985 | 1425.7 | 35.1
313.15 K, x2 = 0 | 1251.7 | 8.1
313.15 K, x2 = 0.1 | 1297 | 9.7
313.15 K, x2 = 0.1999 | 1327.5 | 10.7
313.15 K, x2 = 0.3001 | 1349.4 | 12.3
313.15 K, x2 = 0.4 | 1367.2 | 13.4
313.15 K, x2 = 0.5001 | 1381.1 | 15.4
313.15 K, x2 = 0.5999 | 1392.2 | 17.6
313.15 K, x2 = 0.7 | 1401.6 | 18.7
313.15 K, x2 = 0.7995 | 1409.4 | 21.2
313.15 K, x2 = 0.8985 | 1416.1 | 24.4
323.15 K, x2 = 0 | 1244 | 6.4
323.15 K, x2 = 0.1 | 1288 | 7.7
323.15 K, x2 = 0.1999 | 1318.3 | 8.4
323.15 K, x2 = 0.3001 | 1340.2 | 9.7
323.15 K, x2 = 0.4 | 1357.8 | 10.2
323.15 K, x2 = 0.5001 | 1371.6 | 11.9
323.15 K, x2 = 0.5999 | 1382.8 | 13.6
323.15 K, x2 = 0.7 | 1392.1 | 14.1
323.15 K, x2 = 0.7995 | 1399.9 | 16
323.15 K, x2 = 0.8985 | 1406.6 | 18.4
333.15 K, x2 = 0 | 1235.4 | 5.2
333.15 K, x2 = 0.1 | 1279 | 5.7
333.15 K, x2 = 0.1999 | 1309 | 6.3
333.15 K, x2 = 0.3001 | 1331 | 7.3
333.15 K, x2 = 0.4 | 1348.4 | 7.5
333.15 K, x2 = 0.5001 | 1362.2 | 9.2
333.15 K, x2 = 0.5999 | 1373.3 | 10.5
333.15 K, x2 = 0.7 | 1382.6 | 10.8
333.15 K, x2 = 0.7995 | 1390.4 | 12.2
333.15 K, x2 = 0.8985 | 1397.1 | 14.1
343.15 K, x2 = 0 | 1225 | 4.3
343.15 K, x2 = 0.1 | 1269.9 | 4.6
343.15 K, x2 = 0.1999 | 1299.8 | 5.1
343.15 K, x2 = 0.3001 | 1321.8 | 5.9
343.15 K, x2 = 0.4 | 1339.1 | 6.2
343.15 K, x2 = 0.5001 | 1352.8 | 7.3
343.15 K, x2 = 0.5999 | 1363.9 | 8.2
343.15 K, x2 = 0.7 | 1373.2 | 8.6
343.15 K, x2 = 0.7995 | 1381 | 9.5
343.15 K, x2 = 0.8985 | 1387.6 | 10.7
